Data from US4021546A (priority 1976, dated 1977).
≈ marks a conversion by molar mass, not a printed value.

Tests used:
[1] = recent reports; cited from earlier work
[2] = system: animal enzymes; settings: more recent studies; cited from earlier work
[3] = 25° C.; cited from earlier work
[4] = from the gastrointestinal tract, cited from earlier work
[5] = compared to digitoxin; cited from earlier work
[6] = in vivo; cited from earlier work
[7] = physchem; settings: 0.01 n hcl

For CO[C@H]1[C@@H](O)C[C@H](O[C@H]2[C@@H](O)C[C@H](O[C@H]3[C@@H](O)C[C@H](O[C@H]4CC[C@@]5(C)[C@H](CC[C@@H]6[C@@H]5C[C@@H](O)[C@]5(C)[C@@H](C7=CC(=O)OC7)CC[C@]65O)C4)O[C@@H]3C)O[C@@H]2C)O[C@@H]1C [4'"-methyldigoxin], the demethylation in man [1] is listed as “actually demethylated in man” and the “resistance to degradation by animal enzymes” value [2] is listed as “very resistant to degradation by animal enzymes”.
In the case of C[C@H]1O[C@@H](O[C@H]2[C@@H](O)C[C@H](O[C@H]3[C@@H](O)C[C@H](O[C@H]4CC[C@@]5(C)[C@H](CC[C@@H]6[C@@H]5C[C@@H](O)[C@]5(C)[C@@H](C7=CC(=O)OC7)CC[C@]65O)C4)O[C@@H]3C)O[C@@H]2C)C[C@H](O)[C@@H]1O [digoxin], the “solubility per ml of 0.1 N HCl” value [3] is listed as “about 78 mcg/ml”, the “completeness of absorption vs digitoxin” value ([4]; compared to digitoxin) is listed as “not as completely absorbed” and the extent of absorption [4] is listed as 50% to 70. For the same molecule, the duration of action [5] was “shorter”, the onset of action [5] was “quite more rapid” and the “closeness of therapeutic and toxic dose” value [6] was “extremely close”. It also gave a solubility [7] of about 78 µg/mL (≈ 99.9 µM).
